Test results published in patent US20140242707A1, “Compositions and Methods for Diagnosing Hypercoagulability and Hypocoagulability” (Philadelphia Health & Education Corporation d/b/a Drexel …, priority 2011, published 2014).

Experiments:
[1] = tested on: Patient plasma; pooled normal plasma; experiment: Thrombelastography of Heartmate II VAD patient plasma and pooled normal plasma; type: biochemical, human; conditions: for change in clot strength (TTG) compared to normal plasma: VAD patient plasma, 100 μM CORM-2 or 30 mM PHA
Procedure: Shortly after induction of anesthesia and invasive monitoring placement, whole blood was collected from the patient's radial arterial catheter and immediately anticoagulated with sodium citrate (9 parts blood:1 part 0.105M sodium citrate). The blood was immediately centrifuged at 3000×g at room temperature, with plasma aliquoted and stored at −80° C. prior to thrombelastographic analyses subsequently described. Operation proceeded, with VAD replacement followed by discharge from the hospital three weeks later.
Patient plasma was subjected to thrombelastographic analysis for 30 min at 37° C. as previously described (Nielsen et al., 2009, Blood Coagul Fibrinolysis, 20: 377-380; Nielsen et al., 2011, Blood Coagul Fibrinolysis, 22: 657-661). Also, for qualitative/semi-quantitative comparison, four replicate samples of citrated, pooled normal plasma (George King Bio-Medical, Overland Park, Kans., USA) were subjected to identical thrombelastographic analyses. In brief, the final volume for all subsequently described plasma sample mixtures was 359.6 Sample composition consisted of 326 μl of plasma; 10 μl of tissue factor reagent (0.1% final concentration in dH2O; Diagnostica Stago S.A.S., Asnieres sur Seine, France), 3.6 μl of dH2O or dH2O containing the organic reductant phenylhydroxylamine (PHA, 30 mM final concentration, Sigma-Aldrich, Saint Louis, Mo., USA), or 3.6 μl of CORM-2 (100 μM final concentration; Sigma-Aldrich) and 20 μl of 200 mM CaCl2. The addition of CORM-2 determines if there are heme groups unbound by CO in plasma by increasing coagulation kinetics (Nielsen et al., 2011, Blood Coagul Fibrinolysis, 22: 657-661). PHA at this concentration rapidly converts heme-attached Fe^+2 to Fe^+3, the met-state, displacing CO and decreasing coagulation (Nielsen et al., 2011, Blood Coagul Fibrinolysis, 22: 657-661). […] Thrombelastographic variables previously described (Nielsen et al., 2009, Blood Coagul Fibrinolysis, 20: 377-380; Nielsen et al., 2011, Blood Coagul Fibrinolysis, 22: 657-661) were determined, and the results are depicted in FIG. 7 and FIG. 8.

horse plasma = experiment: Thrombelastography of horse plasma, coagulation study (no tPA); type: biochemical; parameters: increase in TTG vs control / decrease in MRTG vs control / decrease in TTG vs control / decrease in MRTG vs control sample / decrease in TTG vs control sample / increase in MRTG vs control sample / increase in TTG vs control sample: concentration or dose not given beside the values; conditions: for MRTG / TMRTG / TTG / MA / R / α: PHA 10 mM, CORM-2 100 μM
Procedure: Blood was collected directly into plastic tubes containing 0.105 M sodium citrate (9:1, v/v) from the jugular vein of ten clinically normal grade and American Quarter Horse mares between 400 and 600 kg. Three additional horses to be subsequently described with acute gastrointestinal disease had blood samples similarly collected. The mares were group-housed in corrals. Plasma was obtained by centrifugation of citrated whole blood at 3000×g for 15 minutes and immediately frozen at −80° C. Plasma was subsequently shipped on dry ice and stored at −80° C. until thrombelastographic analysis.
The final volume for all subsequently described plasma sample mixtures was 359.6 μl. Sample composition for this series of experiments consisted of 326 μl of plasma; 10 μl of tissue factor reagent (0.1% final concentration in dH2O; Diagnostica Stago S.A.S., Asnieres sur Seine, France); 3.6 μl of dH2O, or 3.6 μl dH2O containing the heme-binding reductant phenylhydroxylamine (PHA, 10 mM final concentration, Sigma-Aldrich, Saint Louis, Mo., USA), or 3.6 μl of dimethyl sulfoxide with CORM-2 (100 μM final concentration; Sigma-Aldrich, Saint Louis, Mo., USA); and 20 μl of 200 mM CaCl2. As previously described in human plasma (McMichael et al., 2011, Blood Coagul Fibrinolysis, 22: 424-430), this diagnostic panel is designed to determine hemostatic kinetic changes following of formation of carboxyhemefibrinogen (Fe^+2 state) after exposure to CO released from CORM-2 and to determine the effects of formation of methemefibrinogen (Fe^+3 state) after exposure to PHA. The relative change from baseline kinetics caused by exposure to CORM-2 and PHA allow determination of the balance between oxy/carboxy/methemefibrinogen concentrations in human plasma (McMichael et al., 2011, Blood Coagul Fibrinolysis, 22: 424-430).
Plasma sample mixtures were placed in a disposable cup in a computer-controlled Thrombelastograph® hemostasis system (Model 5000, Haemoscope Corp., Niles, Ill., USA), with addition of CaCl2 as the last step to initiate clotting. Data were collected at 37° C. for 15 min in the first series of experiments involving coagulation alone, whereas in the experiments involving fibrinolysis data were collected until clot lysis time was observed. Elastic modulus-based parameters previously described were determined (Nielsen et al., 2009, Blood Coagul Fibrinolysis, 20: 377-380; Nielsen et al., 2009, Blood Coagul Fibrinolysis, 20: 448-455). The nomenclature used to describe these phenomena is as follows:
Time to maximum rate of thrombus generation (TMRTG): This is the time interval (min) observed prior to maximum speed of clot growth.
Maximum rate of thrombus generation (MRTG): This is the maximum velocity of clot growth observed (dynes/cm^2/sec).
Total Thrombus Generation (TTG): This is the total area under the velocity curve during clot growth (dynes/cm^2), representing the amount of clot strength generated during clot growth.
Thrombelastographic data are presented as mean±SD or as individual animal parameter values as appropriate. The effects of addition of CORM-2 and PHA on coagulation and fibrinolytic kinetic parameters were analyzed with one way repeated measures analysis of variance, utilizing Holm-Sidak post hoc test (SigmaStat 3.1, Systat Software, Inc., San Jose, Calif., USA) as appropriate. A P value of <0.05 was considered significant.

[2] = horse with lethal disease, no tPA
[3] = horse with lethal enteritis, no tPA
[4] = horse with mild disease, no tPA
[5] = horse with mild enteritis, no tPA
[6] = horse with moderate disease, no tPA
[7] = horse with moderate enteritis, no tPA

**Q.** `[C-]#[O+].[C-]#[O+].[C-]#[O+].[C-]#[O+].[C-]#[O+].[C-]#[O+].[Cl][Ru][Cl].[Cl][Ru][Cl]` [CORM-2, tricarbonyldichlororuthenium (II) dimer] was tested. Which “change in clot strength (TTG) compared to normal plasma” value [1] did it give?
**A.** markedly decreased response

**Q.** What about the “change in clot strength (TTG)” value ([1]; normal pooled plasma, 100 μM CORM-2) of the same molecule?
**A.** typical increase

**Q.** And the MRTG (horse plasma; [2])?
**A.** 5.0 dynes/cm^2/sec

**Q.** And the TMRTG (horse plasma; [2])?
**A.** 3.7 min

**Q.** What about the TTG (horse plasma; [2]) of the same molecule?
**A.** 126 dynes/cm^2

**Q.** And the “increase in MRTG vs control sample” value (horse plasma; [3])?
**A.** 67%

**Q.** What about the “increase in TTG vs control sample” value (horse plasma; [3]) of the same molecule?
**A.** 97%

**Q.** What about the MRTG (horse plasma; [4]) of the same molecule?
**A.** 10.2 dynes/cm^2/sec

**Q.** What about the TMRTG (horse plasma; [4]) of the same molecule?
**A.** 2.9 min

**Q.** And the TTG (horse plasma; [4])?
**A.** 308 dynes/cm^2

**Q.** And the “increase in MRTG vs control sample” value (horse plasma; [5])?
**A.** 16%

**Q.** And the “increase in TTG vs control sample” value (horse plasma; [5])?
**A.** 25%

**Q.** What about the MRTG (horse plasma; [6]) of the same molecule?
**A.** 9.1 dynes/cm^2/sec

**Q.** And the TMRTG (horse plasma; [6])?
**A.** 2.4 min

**Q.** And the TTG (horse plasma; [6])?
**A.** 238 dynes/cm^2

**Q.** And the “increase in MRTG vs control sample” value (horse plasma; [7])?
**A.** 28%

**Q.** What about the “increase in TTG vs control sample” value (horse plasma; [7]) of the same molecule?
**A.** 47%

**Q.** And the “increase in TTG vs control” value (horse plasma; normal horses, no tPA)?
**A.** 9%

**Q.** And the MA (horse plasma; normal horses)?
**A.** 40.4 ± 3.4

**Q.** What about the MRTG (horse plasma; normal horses) of the same molecule?
**A.** 13.0 ± 2.9 dynes/cm^2/sec

**Q.** What about the R (horse plasma; normal horses) of the same molecule?
**A.** 2.0 ± 0.4

**Q.** And the TMRTG (horse plasma; normal horses)?
**A.** 2.8 ± 0.5 min

**Q.** What about the TTG (horse plasma; normal horses) of the same molecule?
**A.** 342 ± 48 dynes/cm^2

**Q.** What about the α (horse plasma; normal horses) of the same molecule?
**A.** 80.2 ± 2.1

**Q.** What does the source list for `ONc1ccccc1` [PHA, phenylhydroxylamine]?
**A.** change in clot strength (TTG) compared to normal plasma [1]: greater decrease; MRTG (horse plasma; [2]): 0.1 dynes/cm^2/sec; TMRTG (horse plasma; [2]): 8.2 min; TTG (horse plasma; [2]): 2 dynes/cm^2; effect on coagulation (horse plasma; [3]): essentially extinguished coagulation; MRTG (horse plasma; [4]): 4.8 dynes/cm^2/sec; TMRTG (horse plasma; [4]): 3.9 min; TTG (horse plasma; [4]): 177 dynes/cm^2; decrease in MRTG vs control sample (horse plasma; [5]): 45%; decrease in TTG vs control sample (horse plasma; [5]): 28%; MRTG (horse plasma; [6]): 3.9 dynes/cm^2/sec; TMRTG (horse plasma; [6]): 3.5 min; TTG (horse plasma; [6]): 126 dynes/cm^2; decrease in MRTG vs control sample (horse plasma; [7]): 45%; decrease in TTG vs control sample (horse plasma; [7]): 22%; decrease in MRTG vs control (horse plasma; normal horses, no tPA): 54%; decrease in TTG vs control (horse plasma; normal horses, no tPA): 47%; MA (horse plasma; normal horses): 24.6 ± 2.7; MRTG (horse plasma; normal horses): 6.2 ± 1.7 dynes/cm^2/sec; R (horse plasma; normal horses): 2.4 ± 0.4; TMRTG (horse plasma; normal horses): 3.4 ± 0.6 min; TTG (horse plasma; normal horses): 166 ± 23 dynes/cm^2; α (horse plasma; normal horses): 71.7 ± 3.6
